Our source for the IC50 values is ChEMBL document CHEMBL4261578, “Structure-Function Analysis of Immune Checkpoint Receptors to Guide Emerging Anticancer Immunotherapy” (J Med Chem, 2018).

Structures are written as SMILES. Numbered stars: 1 amine (or outer) side, 2 acyl side, 3 side chain; on linkers, the order of the positions; unused ones are H or OH. Bridge positions count the residues as written; N and C are the ends. Square brackets hold non-standard residues; d marks the D form. Peptide text beside a SMILES is read from it. ξ: configuration not given here. X1 = CC(C)C[C@H](N[*:1])C(=O)NC(=O)[*:2]; NMeNle = CCCC[C@H](NC)C(=O)O; NMeA = CN[C@@H](C)C(=O)O; ξP = O=C(O)C1CCCN1; ξC = NC(CS)C(=O)O; Sar = CNCC(=O)O

This experiment concerns the target Programmed cell death 1 ligand 1 (Homo sapiens, UniProt Q9NZQ7). The experiment can be described thus: Inhibition of PD-L1 (unknown origin).

Chain of Programmed cell death 1 ligand 1 (Q9NZQ7 whole entry): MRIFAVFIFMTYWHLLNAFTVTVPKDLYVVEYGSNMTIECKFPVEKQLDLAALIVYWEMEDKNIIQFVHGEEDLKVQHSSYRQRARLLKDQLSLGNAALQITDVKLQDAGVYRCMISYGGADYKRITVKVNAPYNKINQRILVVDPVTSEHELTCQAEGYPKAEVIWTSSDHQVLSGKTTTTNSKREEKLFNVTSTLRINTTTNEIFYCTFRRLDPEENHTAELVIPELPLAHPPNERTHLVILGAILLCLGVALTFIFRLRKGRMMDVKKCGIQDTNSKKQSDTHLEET

`CCCC[C@H]1C(=O)N(C)[C@@H](CCCC)C(=O)N[C@@H](CCCNC(=N)N)C(=O)NC(C(=O)NCC(N)=O)CSCC(=O)N[C@@H](Cc2ccccc2)C(=O)N(C)[C@@H](C)C(=O)N[C@@H](CC(N)=O)C(=O)N2CCCC2C(=O)N[C@@H](CC(C)C)C(=O)NC(=O)N(C)CC(=O)NCC(=O)N[C@@H](Cc2c[nH]c3ccccc23)C(=O)N[C@@H](Cc2c[nH]c3ccccc23)C(=O)N1C` (stereo partly specified) ({CH2CO}-F[NMeA]N[ξP][X1][Sar]GWW[NMeNle][NMeNle]R[ξC]G-NH2; thioether N-13) came in with an IC50 of 5.2 nM.

A word on the IC50: it is the concentration that gives 50% inhibition.
